Experimental data reported in PubChem BioAssay AID1963847 (Molecular Pharmacology Branch, DTP, NCI, 2024).

Test system: 415267-285-R-J2-PDC complex spheroid viability
Experiment: Anticancer human tumor 415267-285-R-J2-PDC patient-derived breast carcinoma cell line growth inhibition [POLQ]
Details: for IC50: curve of first compound; for viability, T/C: stronger effect = lower value
Procedure, shortened: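 Growth inhibition in 3D: complex spheroids (tumor PDC, HUVEC, MSC) treated with POLQ inhibitor combinations; where Cmax unknown, highest tested concentration 10 microM, except SN-38 at 1 microM.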

[1] = second compound 0.0316 µM, first compound 0.0316 µM
[2] = second compound 0.0316 µM, first compound 0.1 µM
[3] = second compound 0.0316 µM, first compound 0.316 µM
[4] = second compound 0.0316 µM, first compound 1 µM
[5] = second compound 0.0316 µM, first compound 3.16 µM
[6] = second compound 0.0316 µM, first compound 10 µM
[7] = second compound 0.1 µM, first compound 0.0316 µM
[8] = second compound 0.1 µM, first compound 0.1 µM
[9] = second compound 0.1 µM, first compound 0.316 µM
[10] = second compound 0.1 µM, first compound 1 µM
[11] = second compound 0.1 µM, first compound 3.16 µM
[12] = second compound 0.1 µM, first compound 10 µM
[13] = second compound 0.316 µM, first compound 0.0316 µM
[14] = second compound 0.316 µM, first compound 0.1 µM
[15] = second compound 0.316 µM, first compound 0.316 µM
[16] = second compound 0.316 µM, first compound 1 µM
[17] = second compound 0.316 µM, first compound 3.16 µM
[18] = second compound 0.316 µM, first compound 10 µM
[19] = second compound 1 µM, first compound 0.0316 µM
[20] = second compound 1 µM, first compound 0.1 µM
[21] = second compound 1 µM, first compound 0.316 µM
[22] = second compound 1 µM, first compound 1 µM
[23] = second compound 1 µM, first compound 3.16 µM
[24] = second compound 1 µM, first compound 10 µM
[25] = second compound 3.16 µM, first compound 0.0316 µM
[26] = second compound 3.16 µM, first compound 0.1 µM
[27] = second compound 3.16 µM, first compound 0.316 µM
[28] = second compound 3.16 µM, first compound 1 µM
[29] = second compound 3.16 µM, first compound 3.16 µM
[30] = second compound 3.16 µM, first compound 10 µM
[31] = second compound 10 µM, first compound 0.0316 µM
[32] = second compound 10 µM, first compound 0.1 µM
[33] = second compound 10 µM, first compound 0.316 µM
[34] = second compound 10 µM, first compound 1 µM
[35] = second compound 10 µM, first compound 3.16 µM
[36] = second compound 10 µM, first compound 10 µM
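Also: spheroids exposed to compounds for one week before readout.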
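For viability, T/C in this document: luminescence used as stand-in measure of viable cells; 100% = DMSO vehicle control viability.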

Question: Which IC50 (second compound 0.0316 µM) does the source give for `O=C(Nc1ccc(O)c(NS(=O)(=O)c2ccc(F)cc2)c1)c1ccc(-c2ccccc2)cc1` + Nc1ccc(C#CCN(C(=O)Cc2ncc(C(F)(F)F)cc2C(F)(F)F)c2ccc(F)cc2)nn1 here?
Answer: Its IC50 is greater than 10 µM.

Question: What about the IC50 (second compound 0.1 µM) of the same molecule?
Answer: Its IC50 is greater than 10 µM.

Question: What about the IC50 (second compound 0.316 µM) of the same molecule?
Answer: Its IC50 is greater than 10 µM.

Question: And the IC50 (second compound 1 µM)?
Answer: Its IC50 is greater than 10 µM.

Question: What about the IC50 (second compound 3.16 µM) of the same molecule?
Answer: The IC50 was greater than 10 µM.

Question: What about the IC50 (second compound 10 µM) of the same molecule?
Answer: Its IC50 is greater than 10 µM.

Question: What about the viability, T/C [1] of the same molecule?
Answer: Its viability, T/C is 100%.

Question: What about the viability, T/C [2] of the same molecule?
Answer: Its viability, T/C is 97.3%.

Question: What about the viability, T/C [3] of the same molecule?
Answer: Its viability, T/C is 84.3%.

Question: And the viability, T/C [4]?
Answer: Its viability, T/C is 107%.

Question: What about the viability, T/C [5] of the same molecule?
Answer: The viability, T/C was 92.7%.

Question: What about the viability, T/C [6] of the same molecule?
Answer: Its viability, T/C is 78.2%.

Question: What about the viability, T/C [7] of the same molecule?
Answer: Its viability, T/C is 104%.

Question: And the viability, T/C [8]?
Answer: The viability, T/C was 99.1%.

Question: And the viability, T/C [9]?
Answer: The viability, T/C was 106%.

Question: And the viability, T/C [10]?
Answer: The viability, T/C was 86.1%.

Question: What about the viability, T/C [11] of the same molecule?
Answer: The viability, T/C was 97.2%.

Question: What about the viability, T/C [12] of the same molecule?
Answer: Its viability, T/C is 61.6%.

Question: And the viability, T/C [13]?
Answer: The viability, T/C was 105%.

Question: And the viability, T/C [14]?
Answer: The viability, T/C was 102%.

Question: And the viability, T/C [15]?
Answer: The viability, T/C was 107%.

Question: And the viability, T/C [16]?
Answer: Its viability, T/C is 94.9%.

Question: And the viability, T/C [17]?
Answer: The viability, T/C was 97.4%.

Question: And the viability, T/C [18]?
Answer: The viability, T/C was 71.5%.

Question: What about the viability, T/C [19] of the same molecule?
Answer: Its viability, T/C is 102%.

Question: What about the viability, T/C [20] of the same molecule?
Answer: The viability, T/C was 90.8%.

Question: And the viability, T/C [21]?
Answer: Its viability, T/C is 89.6%.

Question: And the viability, T/C [22]?
Answer: The viability, T/C was 95.3%.

Question: What about the viability, T/C [23] of the same molecule?
Answer: The viability, T/C was 99.8%.

Question: And the viability, T/C [24]?
Answer: Its viability, T/C is 66.2%.

Question: And the viability, T/C [25]?
Answer: The viability, T/C was 102%.

Question: And the viability, T/C [26]?
Answer: The viability, T/C was 103%.

Question: What about the viability, T/C [27] of the same molecule?
Answer: Its viability, T/C is 106%.

Question: And the viability, T/C [28]?
Answer: The viability, T/C was 97.8%.

Question: And the viability, T/C [29]?
Answer: The viability, T/C was 91.7%.

Question: What about the viability, T/C [30] of the same molecule?
Answer: The viability, T/C was 75.7%.

Question: And the viability, T/C [31]?
Answer: Its viability, T/C is 102%.

Question: What about the viability, T/C [32] of the same molecule?
Answer: The viability, T/C was 99.9%.

Question: And the viability, T/C [33]?
Answer: The viability, T/C was 111%.

Question: And the viability, T/C [34]?
Answer: The viability, T/C was 89.5%.

Question: And the viability, T/C [35]?
Answer: The viability, T/C was 99.5%.

Question: What about the viability, T/C [36] of the same molecule?
Answer: The viability, T/C was 59.5%.

Question: What does the source list for `COc1cc(C2c3cc4c(cc3C(OC3OC5COC(C)OC5C(O)C3O)C3COC(=O)C23)OCO4)cc(OC)c1O` (stereo unspecified) + Cc1cccc(N(C)C(=O)C2C(O)CCN2c2nc(C)cc(C(F)(F)F)c2C#N)c1?
Answer: IC50 (second compound 0.0316 µM): 0.136 µM; IC50 (second compound 0.1 µM): 0.126 µM; IC50 (second compound 0.316 µM): 0.107 µM; IC50 (second compound 1 µM): 0.125 µM; IC50 (second compound 3.16 µM): 0.103 µM; IC50 (second compound 10 µM): 0.0899 µM; viability, T/C [1]: 96%; viability, T/C [2]: 64.5%; viability, T/C [3]: 10.3%; viability, T/C [4]: 6.03%; viability, T/C [5]: 5.96%; viability, T/C [6]: 6.13%; viability, T/C [7]: 83.3%; viability, T/C [8]: 58.7%; viability, T/C [9]: 15%; viability, T/C [10]: 5.93%; viability, T/C [11]: 6.54%; viability, T/C [12]: 7.34%; viability, T/C [13]: 96.4%; viability, T/C [14]: 52.3%; viability, T/C [15]: 14.2%; viability, T/C [16]: 7.66%; viability, T/C [17]: 5.87%; viability, T/C [18]: 5.74%; viability, T/C [19]: 91.3%; viability, T/C [20]: 58.8%; viability, T/C [21]: 13.1%; viability, T/C [22]: 6.58%; viability, T/C [23]: 4.68%; viability, T/C [24]: 6.56%; viability, T/C [25]: 93.7%; viability, T/C [26]: 50.9%; viability, T/C [27]: 10.1%; viability, T/C [28]: 7.37%; viability, T/C [29]: 5.2%; viability, T/C [30]: 6.34%; viability, T/C [31]: 79.7%; viability, T/C [32]: 47%; viability, T/C [33]: 11%; viability, T/C [34]: 7.78%; viability, T/C [35]: 5.72%; viability, T/C [36]: 5.96%

Question: What does the source list for `CCc1cc2c(N3CCc4c(cc(Cn5ccnc5)cc4-c4cn(C)nc4C(F)(F)F)C3=O)ccnc2c(OC)n1` + COC1C(OC(N)=O)C(O)C(Oc2ccc3c(O)c(NC(=O)c4ccc(O)c(CC=C(C)C)c4)c(=O)oc3c2C)OC1(C)C?
Answer: IC50 (second compound 0.0316 µM): > 10 µM; IC50 (second compound 0.1 µM): > 10 µM; IC50 (second compound 0.316 µM): > 10 µM; IC50 (second compound 1 µM): > 10 µM; IC50 (second compound 3.16 µM): > 10 µM; IC50 (second compound 10 µM): > 10 µM; viability, T/C [1]: 92.8%; viability, T/C [2]: 74.9%; viability, T/C [3]: 88%; viability, T/C [4]: 91.1%; viability, T/C [5]: 83%; viability, T/C [6]: 66.3%; viability, T/C [7]: 89.4%; viability, T/C [8]: 87%; viability, T/C [9]: 83.2%; viability, T/C [10]: 83.3%; viability, T/C [11]: 77.6%; viability, T/C [12]: 67.6%; viability, T/C [13]: 89.8%; viability, T/C [14]: 90.9%; viability, T/C [15]: 71.5%; viability, T/C [16]: 81%; viability, T/C [17]: 75.3%; viability, T/C [18]: 71.8%; viability, T/C [19]: 88.6%; viability, T/C [20]: 89.6%; viability, T/C [21]: 79.5%; viability, T/C [22]: 74.9%; viability, T/C [23]: 79.5%; viability, T/C [24]: 63.2%; viability, T/C [25]: 97.4%; viability, T/C [26]: 83.8%; viability, T/C [27]: 78.8%; viability, T/C [28]: 84.5%; viability, T/C [29]: 73.5%; viability, T/C [30]: 70.5%; viability, T/C [31]: 99.2%; viability, T/C [32]: 89.8%; viability, T/C [33]: 84.9%; viability, T/C [34]: 77.5%; viability, T/C [35]: 73.6%; viability, T/C [36]: 72.2%
